Test results published in ChEMBL document CHEMBL6087405, “Discovery and optimization of anthraquinone derivatives containing substituted bisbenzyloxy groups as a novel scaffold damaged endoplasmic reticulum and against hepatocellular carcinoma cells” (Bioorg Med Chem, 2024).
pIC50: −log10 of the molar value. Active and inactive are the calls of the source. The rule behind the calls is not given here.

Key:
Huh-7 [1] = assay: Induction of ER stress in human Huh-7 cells assessed as increase in calcium ion content by measuring fluorescence intensity at 4 uM incubated for 24 hrs by fluorescence microscopy based analysis; format: functional, cell-based
Huh-7 [2] = assay: Induction of morphological change in human Huh-7 cells assessed as nuclear edge aggregation at 2 to 4 uM measured after 48 hrs by HE staining based microscopic analysis; format: functional, cell-based; conditions: dose 2-4 µM
Huh-7 [3] = assay: Upregulation of BAK protein level in human Huh-7 cells at 2 to 4 uM by Western blot analysis; format: functional, cell-based; conditions: dose 2-4 µM
Huh-7 [4] = assay: Induction of apoptosis in human Huh-7 cells assessed as late apoptotic cells at 8 uM measured after 48 hrs by Annexin V-PE staining based flow cytometry analysis (reference value: 2.06%); format: functional
Huh-7 [5] = assay: Upregulation of cleaved caspase-3 protein level in human Huh-7 cells at 2 to 4 uM by Western blot analysis; format: functional, cell-based; conditions: dose 2-4 µM
Huh-7 [6] = assay: Induction of ER damage in human Huh-7 cells assessed as decrease in glycoprotein content at 2 to 4 uM incubated for 48 hrs by ELISA method; format: functional, cell-based; conditions: dose 2-4 µM
Huh-7 [7] = assay: Induction of morphological change in human Huh-7 cells assessed as appearance of condensed cell nucleus at 2 to 4 uM measured after 48 hrs by HE staining based microscopic analysis; format: functional; conditions: dose 2-4 µM
Huh-7 [8] = assay: Induction of ER stress in human Huh-7 cells assessed as increase in GRP78 protein level at 2 to 4 uM incubated for 48 hrs by Western blot analysis; format: functional, cell-based; conditions: dose 2-4 µM
Huh-7 [9] = assay: Induction of apoptosis in human Huh-7 cells assessed as necrotic cells at 8 uM measured after 48 hrs by Annexin V-PE staining based flow cytometry analysis (reference value: 3.37%); format: functional
Huh-7 [10] = assay: Induction of apoptosis in human Huh-7 cells assessed as early apoptotic cells at 4 uM measured after 48 hrs by Annexin V-PE staining based flow cytometry analysis (reference value: 0.88%); format: functional
Huh-7 [11] = assay: Induction of morphological change in human Huh-7 cells assessed as membrane wrinkling at 2 to 4 uM measured after 48 hrs by HE staining based microscopic analysis; format: functional, cell-based; conditions: dose 2-4 µM
Huh-7 [12] = assay: Upregulation of CRT expression level in human Huh-7 cells at 2 to 4 uM measured after 48 hrs by Western blot analysis; format: functional, cell-based; conditions: dose 2-4 µM
Huh-7 [13] = assay: Induction of ER stress in human Huh-7 cells assessed as increase in IRE1 protein level at 2 to 4 uM incubated for 48 hrs by Western blot analysis; format: functional, cell-based; conditions: dose 2-4 µM
A549 = assay: Antiproliferative activity against human A549 cells measured after 48 hrs by MTT assay; format: functional, cell-based; conditions: A549, 48 h
Huh-7 [14] = assay: Induction of apoptosis in human Huh-7 cells assessed as viable cells at 8 uM measured after 48 hrs in presence of Z-VAD by Annexin V-PE staining based flow cytometry analysis (reference value: 93.69%); format: functional; conditions: read-out: Activity
Huh-7 [15] = assay: Antiproliferative activity against human Huh-7 cells measured after 48 hrs by MTT assay; format: functional, cell-based; conditions: Huh-7, 48 h
Huh-7 [16] = assay: Induction of ER stress in human Huh-7 cells assessed as increase in CHOP protein level at 2 to 4 uM incubated for 48 hrs by Western blot analysis; format: functional, cell-based; conditions: dose 2-4 µM
Huh-7 [17] = assay: Induction of apoptosis in human Huh-7 cells assessed as viable cells at 2 uM measured after 48 hrs by Annexin V-PE staining based flow cytometry analysis (reference value: 93.69%); format: functional; conditions: read-out: Activity
Mitochondrial membrane = assay: Disruption of mitochondrial membrane potential in human Huh-7 cells assessed as appearance of punctate shaped mitochondria at 2 uM measured after 24 hrs by laser scanning confocal microscopic analysis; format: cell membranes
Huh-7 [18] = assay: Induction of ER stress in human Huh-7 cells assessed as increase in calcium ion content by measuring fluorescence intensity at 4 uM incubated for 24 hrs in presence of […] by fluorescence microscopy based analysis; format: functional, cell-based
Huh-7 [19] = assay: Induction of ER stress in human Huh-7 cells assessed as increase in PERK protein level at 4 uM incubated for 48 hrs in presence of 4pba by Western blot analysis; format: functional, cell-based
Huh-7 [20] = assay: Induction of apoptosis in human Huh-7 cells assessed as early apoptotic cells at 8 uM measured after 48 hrs by Annexin V-PE staining based flow cytometry analysis (reference value: 0.88%); format: functional
Huh-7 [21] = assay: Induction of mitochondrial ROS release in human Huh-7 cells at 2 uM measured after 24 hrs by fluorescent microscopic analysis; format: functional, cell-based
Huh-7 [22] = assay: Induction of morphological change in human Huh-7 cells assessed as nuclear pyknosis at 2 to 4 uM measured after 48 hrs by HE staining based microscopic analysis; format: functional, cell-based; conditions: dose 2-4 µM
Huh-7 [23] = assay: Induction of apoptosis in human Huh-7 cells assessed as late apoptotic cells at 2 uM measured after 48 hrs by Annexin V-PE staining based flow cytometry analysis (reference value: 2.06%); format: functional
Huh-7 [24] = assay: Induction of ER damage in human Huh-7 cells assessed as decrease in protein-disulfide bond content at 2 to 4 uM incubated for 48 hrs by absorbance based analysis; format: functional, cell-based; conditions: dose 2-4 µM
[25] = Drug localization in endoplasmic reticulum of human Huh-7 cells assessed as colocalization at 100 uM measured within 1 hr by fluorescence based analysis; format: ADME, subcellular; conditions: huh-7, 1 h
Huh-7 [26] = assay: Induction of mitochondrial ROS release in human Huh-7 cells at 2 uM measured after 24 hrs in presence of […] by fluorescent microscopic analysis; format: functional, cell-based
Huh-7 [27] = assay: Induction of apoptosis in human Huh-7 cells assessed as necrotic cells at 8 uM measured after 48 hrs in presence of Z-VAD by Annexin V-PE staining based flow cytometry analysis (reference value: 3.37%); format: functional
Huh-7 [28] = assay: Induction of ER stress in human Huh-7 cells assessed as increase in IRE1 protein level at 4 uM incubated for 48 hrs in presence of 4pba by Western blot analysis; format: functional, cell-based
Huh-7 [29] = assay: Induction of ER stress in human Huh-7 cells assessed as increase in ATF6 protein level at 2 to 4 uM incubated for 48 hrs by Western blot analysis; format: functional, cell-based; conditions: dose 2-4 µM
Huh-7 [30] = assay: Induction of apoptosis in human Huh-7 cells assessed as necrotic cells at 4 uM measured after 48 hrs by Annexin V-PE staining based flow cytometry analysis (reference value: 3.37%); format: functional
Huh-7 [31] = assay: Induction of morphological change in human Huh-7 cells assessed as decrease in number of cells at 2 to 4 uM measured after 48 hrs by HE staining based microscopic analysis; format: functional, cell-based; conditions: dose 2-4 µM
Huh-7 [32] = assay: Induction of ER stress in human Huh-7 cells assessed as increase in PERK protein level at 2 to 4 uM incubated for 48 hrs by Western blot analysis; format: functional, cell-based; conditions: dose 2-4 µM
Huh-7 [33] = assay: Induction of apoptosis in human Huh-7 cells assessed as viable cells at 4 uM measured after 48 hrs by Annexin V-PE staining based flow cytometry analysis (reference value: 93.69%); format: functional; conditions: read-out: Activity
Huh-7 [34] = assay: Induction of ER stress in human Huh-7 cells assessed as increase in CHOP protein level at 4 uM incubated for 48 hrs in presence of 4pba by Western blot analysis; format: functional, cell-based
Huh-7 [35] = assay: Induction of apoptosis in human Huh-7 cells assessed as early apoptotic cells at 8 uM measured after 48 hrs in presence of Z-VAD by Annexin V-PE staining based flow cytometry analysis (reference value: 0.88%); format: functional

Question: Which results are given for `COc1ccc(COc2cccc3c2C(=O)c2c(OCc4ccc(OC)cc4)cc(C(=O)NCCNCCO)cc2C3=O)cc1`?
Answer: Activity (Huh-7 [1]): Active; Activity (Huh-7 [2]): Active; Activity (Huh-7 [3]): Active; Activity (Huh-7 [4]): 6.32%; Activity (Huh-7 [5]): Active; Activity (Huh-7 [6]): Active; Activity (Huh-7 [7]): Active; Activity (Huh-7 [8]): Active; Activity (Huh-7 [9]): 1.2%; Activity (Huh-7 [10]): 43.64%; Activity (Huh-7 [11]): Active; Activity (Huh-7 [12]): Active; Activity (Huh-7 [13]): Active; pIC50 (A549): 5.59; viability at 8 µM (Huh-7 [14]): 68.5%; pIC50 (Huh-7 [15]): 5.76; Activity (Huh-7 [16]): Active; viability at 2 µM (Huh-7 [17]): 24.1%; Activity (Mitochondrial membrane): Active; Activity (Huh-7 [18]): inactive; Activity (Huh-7 [19]): inactive; Activity (Huh-7 [20]): 68.79%; Activity (Huh-7 [21]): Active; Activity (Huh-7 [22]): Active; Activity (Huh-7 [23]): 4.4%; Activity (Huh-7 [24]): Active; Drug uptake [25]: Active; Activity (Huh-7 [26]): inactive; Activity (Huh-7 [27]): 10.59%; Activity (Huh-7 [28]): inactive; Activity (Huh-7 [29]): Active; Activity (Huh-7 [30]): 8.55%; Activity (Huh-7 [31]): Active; Activity (Huh-7 [32]): Active; viability at 4 µM (Huh-7 [33]): 40.2%; Activity (Huh-7 [34]): inactive; Activity (Huh-7 [35]): 16.45%
